Laboratory results published in patent US20170121322A1, “BET-PROTEIN INHIBITING 3,4-DIHYDROPYRIDO[2,3-B]PYRAZINONES WITH META-SUBSTITUTED AROMATIC AMINO- OR ETHER GROUPS” (Bayer Pharma Aktiengesellschaft, priority 2014, published 2017).

How the values were obtained:
[1] = target: T1, BRD4 bromo domain 2 [BRD4(2)] (Homo sapiens, UniProt O60885); assay: BRD4(2)/acetylated peptide H4 TR-FRET binding assay; conditions: His6-BRD4(2) (aa 357-445) vs acetylated histone H4 peptide
T1 construct: N-terminally His6-tagged BRD4(2) (amino acids 357-445); made in house; host or cells: E. coli
From the text: To assess the BRD4(2) binding strength of the substances described in this application, the ability thereof to inhibit the interaction between BRD4(2) and acetylated histone H4 in a dose-dependent manner was quantified.
For this purpose, a time-resolved fluorescence resonance energy transfer (TR-FRET) assay was used, which measures the binding between N-terminally His6-tagged BRD4(2) (amino acids 357-445) and a synthetic acetylated histone H4 (Ac-H4) peptide with sequence SGRGK(Ac)GGK(Ac)GLGK(Ac)GGAK(Ac)RHRKVLRDNGSGSK-biotin. The recombinant BRD4(2) protein produced in-house according to Filippakopoulos et al., Cell, 2012, 149:214-231 was expressed in E. coli and purified by means of (Ni-NTA) affinity and (Sephadex G-75) size exclusion chromatography. The Ac-H4 peptide can be purchased, for example, from Biosyntan (Berlin, Germany).
In the assay, typically 11 different concentrations of each substance (0.1 nM, 0.33 nM, 1.1 nM, 3.8 nM, 13 nM, 44 nM, 0.15 μM, 0.51 μM, 1.7 μM, 5.9 μM and 20 μM) were analysed as duplicates on the same microtitre plate. For this purpose, 100-fold concentrated solutions in DMSO were prepared by serial dilutions (1:3.4) of a 2 mM stock solution into a clear, 384-well microtitre plate (Greiner Bio-One, Frickenhausen, Germany). From this, 50 nl were transferred into a black test plate (Greiner Bio-One, Frickenhausen, Germany). The test was started by the addition of 2 μl of a 2.5-fold concentrated BRD4(2) solution (final concentration typically 100 nM in the 5 μl of reaction volume) in aqueous assay buffer [50 mM HEPES pH 7.5, 50 mM sodium chloride (NaCl); 50 mM potassium fluoride (KF); 0.25 mM CHAPS and 0.05% serum albumin (BSA)] to the substances in the test plate. This was followed by a 10-minute incubation step at 22° C. for the pre-equilibration of putative complexes between BRD4(2) and the substances.
The mixture was then incubated in the dark at 22° C. for one hour and then at 4° C. for at least 3 hours and for no longer than overnight. The formation of BRD4(2)/Ac-H4 complexes was determined by the measurement of the resonance energy transfer from the streptavidin-Eu chelate to the anti-6His-XL665 antibody present in the reaction. For this purpose, the fluorescence emission was measured at 620 nm and 665 nm after excitation at 330-350 nm in a TR-FRET measuring instrument, for example a Rubystar or Pherastar (both from BMG Lab Technologies, Offenburg, Germany) or a Viewlux (Perkin-Elmer). The ratio of the emissions at 665 nm and at 622 nm was taken as an indicator of the amount of BRD4(2)/Ac-H4 complexes formed.
The data (ratios) obtained were normalized, with 0% inhibition corresponding to the mean from the measurements for a set of controls (typically 32 data points) in which all the reagents were present. In these, in place of test substances, 50 nl of DMSO (100%) were used. Inhibition of 100% corresponded to the mean from the measurements for a set of controls (typically 32 data points) in which all the reagents except BRD4(2) were present. The IC50 was determined by regression analysis based on a 4-parameter equation (minimum, maximum, IC50, Hill; Y=Max+(Min−Max)/(1+(X/IC50)Hill)).

MOLP-8 cells = assay: Cell proliferation assay MOLP-8 (alamarBlue); type: cell-based; conditions: Homo sapiens, multiple myeloma cells, 120 hours
Procedure: In accordance with the invention, the ability of the substances to inhibit cell proliferation was determined. Cell viability was determined by means of the alamarBlue® reagent (Invitrogen) in a Victor X3 Multilabel Reader (Perkin Elmer). The excitation wavelength was 530 nm and the emission wavelength […].
The MOLP-8 cells (DSMZ, ACC 569) were seeded at a concentration of 4000 cells/well in 100 μl of growth medium (RPMI1640, 20% FCS) on 96-well microtitre plates.
After overnight incubation at 37° C., the fluorescence values (CI values) were determined. Then the plates were treated with various substance dilutions (1E-5 M, 3E-6 M, 1E-6 M, 3E-7 M, 1E-7 M, 3E-8 M, 1E-8 M) and incubated at 37° C. over 96 hours (MOLM-13, B16F10, CHL-1 cells) or 120 hours (MOLP-8 cells). Subsequently, the fluorescence values were determined (CO values). For the data analysis, the CI values were subtracted from the CO values and the results were compared between cells which had been treated with various dilutions of the substance or only with buffer solution. The IC50 values (substance concentration needed for 50% inhibition of cell proliferation) were calculated therefrom.
The substances were tested in the cell lines in Table 2, which represent the indications specified by way of example: […]

Structure (SMILES) | IC50 [1] [nM] | IC50 (MOLP-8 cells) [nM]
C[C@@H]1C(=O)N(C)c2ccc(Nc3ccc4c(c3)S(=O)(=O)CC4)nc2N1C1CCOCC1 [Example 4, (3R)-6-[(1,1-Dioxido-2,3-dihydro-1-benzothiophen-6-yl)amino]-1,3-dimethyl-4-(tetrahydro-2H-pyran-4-yl)-3,4-dihydropyrido[2,3-b]pyrazin-2(1H)-one] | 64 | 221
C[C@@H]1C(=O)N(C)c2ccc(Nc3cccc(S(C)(=O)=O)c3)nc2N1C1CCOCC1 [Example 1, (3R)-1,3-Dimethyl-6-{[3-(methylsulphonyl)phenyl]amino}-4-(tetrahydro-2H-pyran-4-yl)-3,4-dihydropyrido[2,3-b]pyrazin-2(1H)-one] | 121 | 204
COc1ccc(S(=O)(=O)C2CC2)cc1Nc1ccc2c(n1)N(C1CCN(C)CC1)[C@H](C)C(=O)N2C [Example 12, (3R)-6-{[5-(Cyclopropylsulphonyl)-2-methoxyphenyl]amino}-1,3-dimethyl-4-(1-methylpiperidin-4-yl)-3,4-dihydropyrido[2,3-b]pyrazin-2(1H)-one] | 67 | 22
C[C@@H]1C(=O)N(C)c2ccc(Nc3cccc(S(C)(=O)=O)c3)nc2N1C1CCN(C)CC1 [Example 11, (3R)-1,3-Dimethyl-4-(1-methylpiperidin-4-yl)-6-{[3-(methylsulphonyl)phenyl]amino}-3,4-dihydropyrido[2,3-b]pyrazin-2(1H)-one] | 75 | 167
C[C@@H]1C(=O)N(C)c2ccc(Nc3cccc(S(C)(=O)=O)c3)nc2N1C1CCCCCC1 [Example 5, (3R)-4-Cycloheptyl-1,3-dimethyl-6-{[3-(methylsulphonyl)phenyl]amino}-3,4-dihydropyrido[2,3-b]pyrazin-2(1H)-one] | 96 | 560
COc1ccc(S(=O)(=O)C2CC2)cc1Nc1ccc2c(n1)N(C1CCOCC1)[C@H](C)C(=O)N2C [Example 8, (3R)-6-{[5-(Cyclopropylsulphonyl)-2-methoxyphenyl]amino}-1,3-dimethyl-4-(tetrahydro-2H-pyran-4-yl)-3,4-dihydropyrido[2,3-b]pyrazin-2(1H)-one] | 49 | 23
Cc1cc(Nc2ccc3c(n2)N(C2CCOCC2)[C@H](C)C(=O)N3C)ccn1 [Example 42, (3R)-1,3-Dimethyl-6-[(2-methylpyridin-4-yl)amino]-4-(tetrahydro-2H-pyran-4-yl)-3,4-dihydropyrido[2,3-b]pyrazin-2(1H)-one] | 180 | 436
C[C@@H]1C(=O)N(C)c2ccc(Nc3cccc(C(F)(F)F)c3)nc2N1C1CCOCC1 [Example 43, (3R)-1,3-Dimethyl-4-(tetrahydro-2H-pyran-4-yl)-6-{[3-(trifluoromethyl)phenyl]amino}-3,4-dihydropyrido[2,3-b]pyrazin-2(1H)-one] | 234 | 911
CC(C)S(=O)(=O)c1cccc(Nc2ccc3c(n2)N(C2CCOCC2)[C@H](C)C(=O)N3C)c1 [Example 7, (3R)-6-{[3-(Isopropylsulphonyl)phenyl]amino}-1,3-dimethyl-4-(tetrahydro-2H-pyran-4-yl)-3,4-dihydropyrido[2,3-b]pyrazin-2(1H)-one] | 44 | 75
Cc1ccc(S(C)(=O)=O)cc1Nc1ccc2c(n1)N(C1CCOCC1)[C@H](C)C(=O)N2C [Example 2, (3R)-1,3-Dimethyl-6-{[2-methyl-5-(methylsulphonyl)phenyl]amino}-4-(tetrahydro-2H-pyran-4-yl)-3,4-dihydropyrido[2,3-b]pyrazin-2(1H)-one] | 173 | 236
COc1ccc(S(=O)(=O)C(C)C)cc1Nc1ccc2c(n1)N(C1CCN(C)CC1)[C@H](C)C(=O)N2C [Example 13, (3R)-6-{[5-(Isopropylsulphonyl)-2-methoxyphenyl]amino}-1,3-dimethyl-4-(1-methylpiperidin-4-yl)-3,4-dihydropyrido[2,3-b]pyrazin-2(1H)-one] | 62 | 15
C[C@@H]1C(=O)N(C)c2ccc(Nc3cccc(S(=O)(=O)C4CC4)c3)nc2N1C1CCOCC1 [Example 6, (3R)-6-{[3-(Cyclopropylsulphonyl)phenyl]amino}-1,3-dimethyl-4-(tetrahydro-2H-pyran-4-yl)-3,4-dihydropyrido[2,3-b]pyrazin-2(1H)-one] | 40 | 67
COc1ccc(S(C)(=O)=O)cc1Nc1ccc2c(n1)N(C1CCOCC1)[C@H](C)C(=O)N2C [Example 3, (3R)-6-{[2-Methoxy-5-(methylsulphonyl)phenyl]amino}-1,3-dimethyl-4-(tetrahydro-2H-pyran-4-yl)-3,4-dihydropyrido[2,3-b]pyrazin-2(1H)-one] | 58 | 103
CCOC(=O)N=S(C)(=O)c1cccc(Nc2ccc3c(n2)N(C2CCOCC2)[C@H](C)C(=O)N3C)c1 (mixture of isomers) [Example 10, Ethyl [(3-{[(3R)-1,3-dimethyl-2-oxo-4-(tetrahydro-2H-pyran-4-yl)-1,2,3,4-tetrahydropyrido[2,3-b]pyrazin-6-yl]amino}phenyl)(methyl)oxido-λ^6-sulphanylidene]carbamate] | 6120 | 281
CC1C(=O)N(C)c2ccc(Nc3cccc(S(C)(=O)=O)c3)nc2N1c1ccccc1 (stereo not drawn) [Example 17, 1,3-Dimethyl-6-{[3-(methylsulphonyl)phenyl]amino}-4-phenyl-3,4-dihydropyrido[2,3-b]pyrazin-2(1H)-one] | 212 | 1060
